Drawing on patent US7534808B2, “Indolylmaleimide derivatives” (priority 2002, dated 2009), this text covers IC50 for one compound.

pIC50: −log10 of the molar value.

Assay [1] addresses T1, Human recombinant PKCε (Homo sapiens, UniProt Q02156).
T1 construct: purchased Oxford Biomedical Research
T1 sequence (Q02156 1-737): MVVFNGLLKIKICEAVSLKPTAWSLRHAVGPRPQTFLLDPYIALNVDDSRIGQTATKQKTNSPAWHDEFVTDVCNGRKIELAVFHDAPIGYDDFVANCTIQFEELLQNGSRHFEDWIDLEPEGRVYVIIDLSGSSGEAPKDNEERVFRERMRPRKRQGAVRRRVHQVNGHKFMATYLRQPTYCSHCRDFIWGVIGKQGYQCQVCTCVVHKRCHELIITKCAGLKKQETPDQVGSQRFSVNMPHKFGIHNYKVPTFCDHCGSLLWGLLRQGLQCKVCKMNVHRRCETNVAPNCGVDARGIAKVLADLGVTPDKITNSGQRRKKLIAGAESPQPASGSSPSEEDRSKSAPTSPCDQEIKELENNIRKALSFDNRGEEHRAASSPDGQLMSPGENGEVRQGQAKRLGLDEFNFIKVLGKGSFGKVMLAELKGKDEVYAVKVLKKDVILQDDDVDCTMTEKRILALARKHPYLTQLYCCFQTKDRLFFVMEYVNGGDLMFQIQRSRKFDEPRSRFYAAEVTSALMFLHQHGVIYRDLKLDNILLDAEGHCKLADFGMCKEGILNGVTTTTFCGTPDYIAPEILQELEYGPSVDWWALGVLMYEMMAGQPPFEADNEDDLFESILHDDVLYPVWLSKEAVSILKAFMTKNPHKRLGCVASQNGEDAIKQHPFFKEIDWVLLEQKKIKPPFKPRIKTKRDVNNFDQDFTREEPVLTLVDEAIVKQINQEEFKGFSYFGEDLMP
Put plainly: Protein Kinase Cε Assay. In kind it is biochemical. How it is done:
(§1) The compounds of formula I are tested for their activity on different PKC isoforms according to a published method (D. Geiges et al. Biochem. Pharmacol. 1997; 53:865-875) The assay is performed in a 96-well polypropylene microtiterplate (Costar 3794) that has been previously siliconized with Sigmacote (Sigma SL-2). The reaction mixture (50 μl) contains 10 μl of the relevant PKC isozyme together with 25 μl of the test compound and 15 μl of a mix solution that contains 200 μg/ml protamine sulfate, 10 mM Mg(NO3)2, 10 μM ATP (Boehringer 519987) and 3750 Bq of ^33P-ATP (Hartmann Analytic SFC301, 110TBq/mmol) in 20 mM Tris-buffer pH 7.4+0.1% BSA. Incubation is performed for 15 min at 32° C. in a microtiterplate shaking incubator (Biolabo Scientific Instruments). Reaction is stopped by adding 10 μl of 0.5 M Na2EDTA, pH 7.4. 50 μl of mixture are pipetted onto a pre-wetted phosphocellulose paper (Whatmann 3698-915) under gentle pressure. Non-incorporated ATP is washed away with 100 μl bi-dist H2O. The paper is washed twice in 0.5% H3PO4 for 15 min followed by 5 min in EtOH. Thereafter the paper is dryed and placed in an omnifilter (Packard 6005219), and overlayed with 10 μl/well of Microscint-O (Packard 6013611) before counting in a Topcount radioactivity counter (Packard). […] IC50 values are calculated from the graph by sigmoidal curve fitting. […]

Assay [2] has as its target Human recombinant PKCθ (Homo sapiens, UniProt Q04759). Put plainly: Protein Kinase C θ Assay. In kind it is biochemical. How it is done: as §1

Human recombinant PKCθ, sequence (Q04759 whole entry): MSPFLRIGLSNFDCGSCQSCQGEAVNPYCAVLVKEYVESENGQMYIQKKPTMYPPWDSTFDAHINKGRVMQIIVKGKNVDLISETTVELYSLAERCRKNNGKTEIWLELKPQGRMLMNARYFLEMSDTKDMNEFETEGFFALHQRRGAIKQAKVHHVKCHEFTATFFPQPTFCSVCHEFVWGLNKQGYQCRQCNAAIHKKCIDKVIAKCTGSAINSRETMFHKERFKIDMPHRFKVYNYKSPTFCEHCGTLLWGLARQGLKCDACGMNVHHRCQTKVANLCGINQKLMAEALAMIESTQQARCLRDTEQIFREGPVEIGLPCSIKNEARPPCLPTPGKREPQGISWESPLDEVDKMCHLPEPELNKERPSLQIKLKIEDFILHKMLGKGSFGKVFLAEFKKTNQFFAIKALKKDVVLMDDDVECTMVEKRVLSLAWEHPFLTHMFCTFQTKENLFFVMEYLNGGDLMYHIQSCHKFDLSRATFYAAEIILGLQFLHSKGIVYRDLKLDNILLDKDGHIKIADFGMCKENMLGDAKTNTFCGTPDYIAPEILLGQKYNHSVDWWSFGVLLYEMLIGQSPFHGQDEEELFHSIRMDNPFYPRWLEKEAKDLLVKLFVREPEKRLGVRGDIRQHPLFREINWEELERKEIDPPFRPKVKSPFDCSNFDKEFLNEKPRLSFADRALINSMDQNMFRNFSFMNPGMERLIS

Take `Cc1cccc2c(C3=C(c4nc(N5CCNC6(CC6)C5)cc5ccccc45)C(=O)NC3=O)c[nH]c12` [Example 69, 3-[3-(4,7-Diaza-spiro[2.5]oct-7-yl)-isoquinolin-1-yl]-4-(7-methyl-1H-indol-3-yl)-pyrrole-2,5-dione]: the pIC50 in assay [1] was 7.74; in assay [2] it was 7.92.

Usually pIC50 stands for the IC50 on a negative log10 scale, so that one unit is a factor of ten.
